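Each compound was tested at five concentrations against cells in 96-well plates for 48 hours. GI50 marks 50% less growth. TGI denotes the concentration required for complete inhibition of growth.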
Experiments:
Assay in all cases: growth of human tumour cells (NCI), 48 h
MOLT-4 leukemia = test system: MOLT-4 leukemia
HCT-15 colon = test system: HCT-15 colon
HOP-92 NSCLC = test system: HOP-92 NSCLC
SF-295 CNS = test system: SF-295 CNS
T-47D breast = test system: T-47D breast
786-0 renal = test system: 786-0 renal
HCT-116 colon = test system: HCT-116 colon
MALME-3M melanoma = test system: MALME-3M melanoma
SK-OV-3 ovarian = test system: SK-OV-3 ovarian
OVCAR-5 ovarian = test system: OVCAR-5 ovarian

| SMILES | GI50 (MOLT-4 leukemia) | TGI (MOLT-4 leukemia) | GI50 (HCT-15 colon) | TGI (HCT-15 colon) | GI50 (HOP-92 NSCLC) | TGI (HOP-92 NSCLC) | GI50 (SF-295 CNS) | GI50 (T-47D breast) | TGI (T-47D breast) | GI50 (786-0 renal) | TGI (786-0 renal) | GI50 (HCT-116 colon) | TGI (HCT-116 colon) | GI50 (MALME-3M melanoma) | TGI (MALME-3M melanoma) | GI50 (SK-OV-3 ovarian) | TGI (SK-OV-3 ovarian) | GI50 (OVCAR-5 ovarian) | TGI (OVCAR-5 ovarian) | TGI (SF-295 CNS) |
| --- | --- | --- | --- | --- | --- | --- | --- | --- | --- | --- | --- | --- | --- | --- | --- | --- | --- | --- | --- | --- |
| C[C@@H]1CC[C@H]2[C@@H](C)C(OC/C=C/COC3O[C@@H]4O[C@@]5(C)CC[C@H]6[C@H](C)CC[C@@H]([C@H]3C)[C@@]46OO5)O[C@@H]3O[C@@]4(C)CC[C@@H]1[C@]32OO4 (some centres undefined) | < 0.01 µM | > 47.2 µM | < 0.01 µM | > 33 µM | < 0.0179 µM | 45.4 µM | < 0.0252 µM | < 0.01 µM | > 100 µM | 0.0168 µM | 18.6 µM | < 0.01 µM | 13.9 µM | 0.0428 µM | 61.5 µM | 19.5 µM | > 100 µM | < 0.01 µM | 0.257 µM |  |
| NC(CP(=O)(O)O)C(=O)O (centres undefined) |  | > 100 µM |  | > 100 µM |  | > 100 µM |  |  | > 100 µM |  | > 100 µM |  | > 100 µM |  | > 100 µM |  | > 100 µM |  | > 100 µM | > 100 µM |
| CCOC(=O)C1=C(C)NC(C)=C(C(=O)OCCNC(=O)c2ccc(N=[N+]=[N-])cc2)C1c1ccccc1C(F)(F)F (centres undefined) |  | 13.5 µM |  | 21.5 µM |  | 18.9 µM |  |  | 21.5 µM |  | 21.5 µM |  | 21.5 µM |  | 21.5 µM |  | 21.5 µM |  | 21.5 µM | 21.5 µM |
| CCSc1nc(NC(C)c2ccccc2)c2cnn(CO)c2n1 (centres undefined) | > 100 µM | > 100 µM | 70.2 µM | > 100 µM | 18.2 µM | 97.1 µM | 35.2 µM | > 100 µM | > 100 µM | 59.9 µM | > 100 µM | > 100 µM | > 100 µM | 29.6 µM | 84.9 µM | 45.8 µM | > 100 µM | > 100 µM | > 100 µM | > 100 µM |
| COc1ccc(/C(=C/c2ccc3ccccc3c2)c2nn[nH]n2)cc1OC | 4.16 µM | > 100 µM | 2.92 µM | > 100 µM | 4.59 µM | 79.8 µM | 1.51 µM | 28.2 µM | > 100 µM | 5.72 µM | > 100 µM | 2.42 µM | > 100 µM | 3.08 µM | > 100 µM | 3.63 µM | > 100 µM | 6.08 µM | > 100 µM | 51.1 µM |
| COc1ccc(C2=NN(C=O)C(c3ccc(OS(=O)(=O)c4ccc(C)cc4)c(OC)c3)C2)cc1 (centres undefined) | 5.23 µM | > 100 µM | 4.19 µM | > 100 µM | 1.88 µM | 31.1 µM | 3.58 µM | 2.27 µM | > 100 µM | 21.6 µM | > 100 µM | 4.56 µM | > 100 µM | 7.09 µM | 49.3 µM | 8.88 µM | > 100 µM | > 100 µM | > 100 µM | 25.2 µM |
